Measured values published in patent US20260097056A1, “SYK ACTIVATORS AND INHIBITORS IN NEURODEGENERATIVE DISEASES” (University of Virginia Patent Foundation, priority 2022, published 2026).

Legend:
[1] = tested on: bone marrow-derived macrophages (BMDMs); experiment: In vitro Aβ phagocytosis assay (CypHer5E-tagged Aβ oligomers, flow cytometry); assay type: cell-based, mouse; details: SYK-deficient (Syk^fl/fl LysM^Cre) BMDMs; 10 μM Tideglusib 1 hour before 10 μM CypHer5E-tagged Aβ oligomers; read 24 hours later; vs vehicle
Procedure: Monomerization of Aβ (1-42) (641-15, California peptide) was achieved using a previously published protocol (Stine et al., 2011), using hexafluoroisopropanol (HFIP) (52517, Sigma-Aldrich). 5 mM monomeric Aβ samples were incubated for 24 hours at 4° C. in F12 media to make a 200 μM stock of oligomeric Aβ. Samples were then incubated with CypHer5E-NHS ester (PA15401, […]) diluted in 0.1 M sodium bicarbonate for 30 minutes covered and at room temperature. Following incubation, Biospin columns (7326227, Bio-Rad) were used to […] unbound dye. CypHer5E-tagged Aβ oligomers were stored at 4° C. prior to BMDM treatment. Bone marrow-derived macrophages (BMDMs) were isolated from the hindlimbs of WT and Syk^fl/fl LysM^Cre mice. Marrow-containing bones were sprayed with 70% ethanol before being placed in IMDM (Thermo Fisher, 12440-053) containing penicillin/streptomycin (P/S) (Thermo Fisher, 15140163). A 25-gauge needle was used to flush marrow from the bones using 20 ml of IMDM containing P/S. An 18-gauge needle was then used to triturate flushed bone marrow 5 times to make a single-cell suspension. Samples were spun down at 1500 rpm for 5 minutes at 4° C. […] 24 hours post Aβ treatment, BMDMs were then collected, and flow cytometry was used to assess CypHer5E fluorescence. […]

[2] = tested on: 5xFAD mice; experiment: Intrahippocampal injection, Aβ load in hippocampus by immunofluorescence; assay type: in vivo; details: 2 μg pustulan intrahippocampal vs vehicle-injected hemisphere of the same mouse, 7 days post injection
Procedure: Floating brains sectioned stored in PBS+0.05% sodium azide were blocked with 2% donkey serum, 1% bovine serum albumin, 0.1% triton, 0.05% tween in PBS for 1 hour at room temperature before applying the primary antibody master mix diluted in this block overnight at 4° C. Samples were stained with anti-AB (D54D2, Cell Signaling, 1:300; or 6e10, BioLegend, 1:1000) to label plaques. To study microglial morphology and numbers, sections were stained with Iba1 (ab5076, Abcam, 1:300). To further characterize microglia, we labeled with Ki67-EF660 (SoIA15, Thermo Fisher, 1:100), anti-Clec7a (R1-8g7, Invivogen, 1:30), Tmem119 (ab209064, Abcam, 1:300), and anti-CD68 (FA-11, BioRad, 1:1000). […] Quantification of images were performed using Fiji software or Imaris software (9.5.1).
5xFAD and 5xFAD Syk^ΔMG mice were anesthetized before receiving a bilateral hippocampal injection of 2 μl of vehicle or 2 μg pustulan into the right and left hemisphere of the hippocampus (at +2 mm lateral, −2 mm posterior, and −2 mm ventral relative to the intersection of the coronal and sagittal suture (bregma) at a rate of 200 nl/min) using a stereotaxic frame (51730U, Stoelting) and nanoliter injector (NL2010MC2T, World Precision Instruments). […] Images were analyzed using Fiji software and Imaris software (9.5.1).

With `O=c1sn(-c2cccc3ccccc23)c(=O)n1Cc1ccccc1` [Tideglusib] the “Aβ phagocytosis (CypHer5E fluorescence, percent CypHer5E+ CD11b^hi F4/80^hi cells)” value [1] was “significantly increased Aβ phagocytosis”.
In the case of pustulan, the “Aβ load in injected hippocampal hemisphere (D54D2 immunofluorescence)” value [2] is reported as “decreased Aβ load”.
